Values quoted from earlier work in patent US5463127A, “Process for preparation of halohydroxypropyl-trialkylammonium halides” (The Dow Chemical Company, priority 1995, dated 1995).
Read-outs that look alike come from different tables or passages of the source.

Conditions: aqueous solution

CN(C)C [Trimethylamine, trimethylamine]
pKa of Trimethylamine (0 °C.): 10.355
pKa of Trimethylamine (10 °C.): 10.128
pKa of Trimethylamine (20 °C.): 9.907
pKa of Trimethylamine (30 °C.): 9.692
pKa of Trimethylamine (40 °C.): 9.477
pKa of Trimethylamine (50 °C.): 9.270
